Test results as given in patent EP0104041B1, “Enzyme inhibitors” (priority 1982, dated 1984).
Non-standard residues stand in square brackets, D forms with d. Residues, ends and D or L forms follow the SMILES beside them. Sta = CC(C)C[C@H](N)[C@@H](O)CC(=O)O

Assays:
[1] = molecular target: T1, human renin (Homo sapiens, UniProt P00797); test: renin inhibition, methods of the applicants' published European specification (0 045 665); type: biochemical; settings: against human renin
T1 sequence (P00797 67-406): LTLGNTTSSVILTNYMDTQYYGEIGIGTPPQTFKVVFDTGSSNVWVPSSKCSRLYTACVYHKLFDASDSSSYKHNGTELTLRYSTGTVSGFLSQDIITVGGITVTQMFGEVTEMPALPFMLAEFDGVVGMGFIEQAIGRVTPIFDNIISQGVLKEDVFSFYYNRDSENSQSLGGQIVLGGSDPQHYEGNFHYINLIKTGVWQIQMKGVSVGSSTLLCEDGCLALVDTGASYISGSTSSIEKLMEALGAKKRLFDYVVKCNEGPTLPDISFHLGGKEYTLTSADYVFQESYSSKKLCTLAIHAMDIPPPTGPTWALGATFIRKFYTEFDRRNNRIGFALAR
Source text: (§1) This compound is the subject of Example 1 below.

[2] = tested on: baboon renin; test: renin inhibition, baboon renin; type: biochemical; settings: against baboon renin; preliminary results
Source text: as §1

| IC50 [1] [µM] | IC50 ([1]; preliminary results) [µM] | IC50 [2] [µM] | Structure (SMILES) |
| --- | --- | --- | --- |
| 0.016 | – | – | CC[C@H](C)[C@H](NC(=O)[C@@H](NC(=O)C[C@H](O)[C@H](CC(C)C)NC(=O)[C@H](Cc1c[nH]cn1)NC(=O)[C@H](Cc1ccccc1)NC(=O)[C@@H]1CCCN1C(=O)[C@@H](N)Cc1c[nH]cn1)C(C)C)C(=O)N[C@@H](Cc1c[nH]cn1)C(=O)O [Example 1] (H-HPFH[Sta]VIH-OH) |
| – | 0.009 | 0.012 | CC[C@H](C)[C@H](NC(=O)[C@@H](NC(=O)C[C@H](O)[C@H](CC(C)C)NC(=O)[C@H](Cc1c[nH]cn1)NC(=O)[C@H](Cc1ccccc1)NC(=O)[C@@H]1CCCN1C(=O)[C@H](Cc1c[nH]cn1)NC(=O)[C@@H]1CCCN1)C(C)C)C(=O)N[C@@H](Cc1c[nH]cn1)C(=O)N[C@@H](CCCCN)C(=O)O [Example H-189] (H-PHPFH[Sta]VIHK-OH) |
